What all share (assay type): functional
The subject of test [1] is Leishmania donovani. Put plainly: Antileishmanial activity against Leishmania donovani promastigotes at 8 ug/ml.
The subject of test [2] is Leishmania donovani. Put plainly: Antileishmanial activity against Leishmania donovani promastigotes at 4 ug/ml.
Test [3] concerns Leishmania donovani. Put plainly: Antileishmanial activity against Leishmania donovani amastigotes at 20 ug/ml.
For test [4], the system named is Leishmania donovani. Put plainly: Antileishmanial activity against Leishmania donovani promastigotes at 2 ug/ml.

By inhibition is commonly meant how much of the control response was suppressed. Consider `CSc1c(C#N)c(N)c(C#N)c(C)c1-c1ccc(C(F)(F)F)cc1`, for which the inhibition at 8 µg/mL in the test on Leishmania donovani [1] came out at 83%. In the test with Leishmania donovani [2], this compound returned an inhibition at 4 µg/mL of 67%. Moreover, the inhibition at 20 µg/mL in the test on Leishmania donovani [3] came out at 70%.

`COc1ccc(-c2c(C)c(C#N)c(N)c(C#N)c2SC)cc1OC` registered an inhibition at 8 µg/mL with Leishmania donovani [1] of 69%. Also, 4 µg/mL produced 60% inhibition with Leishmania donovani [2]. 20 µg/mL produced 53% inhibition in the test on Leishmania donovani [3].

With `COc1ccc(-c2c(C)c(SC)c(C#N)c(N)c2C#N)cc1`, in the test with Leishmania donovani [1], at 8 µg/mL the inhibition was 53%. The inhibition at 4 µg/mL in the test on Leishmania donovani [2] amounted to 31%. In addition, in the test on Leishmania donovani [3], the inhibition at 20 µg/mL was found to be 25%.

Take `CSc1c(C)c(-c2ccccc2)c(C#N)c(N)c1C#N`: in the test with Leishmania donovani [1], the inhibition at 8 µg/mL was 48%. Moreover, 4 µg/mL produced 25% inhibition in the test on Leishmania donovani [2]. Moreover, testing at 20 µg/mL in the test with Leishmania donovani [3] gave an inhibition of 23%.

Regarding `CSc1c(C#N)c(N)c(C#N)c(C)c1-c1ccccc1F`, the inhibition at 8 µg/mL in the test with Leishmania donovani [1] amounted to 60%. In addition, in the test with Leishmania donovani [2], the inhibition at 4 µg/mL stood at 37%. Further, in the test on Leishmania donovani [3], at 20 µg/mL the inhibition was 61%.

On to `CSc1c(C)c(-c2ccc(Cl)cc2)c(C#N)c(N)c1C#N`, for which, in the test on Leishmania donovani [1], the inhibition at 8 µg/mL came to 50%. Besides, in the test on Leishmania donovani [2], at 4 µg/mL the inhibition was 46%. The same compound gave an inhibition at 20 µg/mL in the test on Leishmania donovani [3] of 10%.

As to `CSc1c(C#N)c(N)c(C#N)c(C)c1-c1ccc(F)cc1`, testing at 8 µg/mL with Leishmania donovani [1] gave an inhibition of 65%. The same compound yielded an inhibition at 4 µg/mL with Leishmania donovani [2] of 43%. In the test on Leishmania donovani [3], the inhibition at 20 µg/mL is 62%.

`COc1ccc(-c2c(C)c(C#N)c(N)c(C#N)c2SC)c(OC)c1` registered an inhibition at 8 µg/mL with Leishmania donovani [1] of 59%. The inhibition at 4 µg/mL in the test on Leishmania donovani [2] was 36%. In the test with Leishmania donovani [3], this compound returned an inhibition at 20 µg/mL of 56%.

As for `N=C(N)c1ccc(OCCCCCOc2ccc(C(=N)N)cc2)cc1` [PENTAMIDINE], at 2 µg/mL the inhibition with Leishmania donovani [4] was 71%. In the test with Leishmania donovani [3], this compound registered an inhibition at 20 µg/mL of 48%.

(Values after ChEMBL document CHEMBL1147709, “Arylanthranilodinitriles: a new biaryl class of antileishmanial agents” (2006).)
